This note sets out measurements from patent US9018208B2, “Heterocycles as potassium channel modulators” (Icagen Inc., priority 2007, dated 2015).

For orientation: EC50 means the concentration giving half of the maximal effect.

Structures are written as SMILES.

The subject of the experiment is SH-SY5Y M-currents (KCNQ2, KCNQ3 and KCNQ5). The experiment in a line: SH-SY5Y native cell line FLIPR assay (voltage-sensitive dye DiBAC). The experiment is classed as cell-based, mouse neuroblastoma, rat glioma hybrid cell line. As to conditions: FLIPR assay, SH-SY5Y native cell line; Table 1; read-out: SH-SY5Y EC50. The text has this: SH-SY5Y cells, a mouse neuroblastoma, rat glioma hybrid cell line, functionally express M-currents (Robbins et al., J. Physiol. 451: 159-85 (1992). SH-SY5Y M-currents are likely comprised, at least in part, of KCNQ2, KCNQ3 and KCNQ5, since these genes are reportedly robustly expressed in differentiated SH-SY5Y cells (Selyanko et al., J. Neurosci. 19(18): 7742-56 (1999); Schroeder et al., J. Biol. Chem. 275(31): 24089-95 (2000)) and KCNQ3 dominant-negative constructs reduce M-current density in these cells (Selyanko et al., J. Neurosci. 22(5): RC212 (2002).
SH-SY5Y were maintained in DMEM (high glucose) supplemented with 10% fetal bovine serum, 0.05 mM pyridoxine, 0.1 mM hypoxanthine, 400 nM aminopterin, […], 50 μgml^−1 gentamycin and 10 mM HEPES, in an incubator at 37° C. with a humidified atmosphere of 5% CO2. Cells were plated in 96 well plates differentiated by addition of 10 μM PGE1 and 50 μM isomethylbutylxanthine to the growth media prior to study.
Differentiated SH-SY5Y cells were loaded with voltage-sensitive dye by incubation in Earls Balanced Salt Solution (EBSS) containing […] DiBAC for 1 h. Following loading, drug solution containing […] DiBAC was added to each well. Changes in fluorescence were measured every 30 s for 25 min. The maximum change in fluorescence was measured and expressed as a percentage of the maximum response obtained in the presence of a positive control agent.
As for `CC1(CC(=O)Nc2nc3ccc(C(F)(F)F)cn3c2CC2CCCCC2)CCCC1` [Compound 46, N-(3-(cyclohexylmethyl)-6-(trifluoromethyl)imidazo[1,2-a]pyridin-2-yl)-2-(1-methylcyclopentyl)acetamide], the EC50 is less than 500 nM.

In the case of `CC1(CC(=O)Nc2nc3ccc(C(F)(F)F)cn3c2C2CCCCC2)CCCC1` [Compound 47, N-(3-cyclohexyl-6-(trifluoromethyl)imidazo[1,2-a]pyridin-2-yl)-2-(1-methylcyclopentyl)acetamide], the EC50 is less than 500 nM.

As for `CC(C)(C)CC(=O)Nc1nc2ccc(C(F)(F)F)cn2c1C1CCCC1` [Compound 48, N-(3-cyclopentyl-6-(trifluoromethyl)imidazo[1,2-a]pyridin-2-yl)-3,3-dimethylbutanamide], the EC50 was less than 500 nM.

In the case of `O=C(Cc1ccccc1)Nc1nc2ccc(C(F)(F)F)cn2c1C1CCCC1` [Compound 49, N-(3-cyclopentyl-6-(trifluoromethyl)imidazo[1,2-a]pyridin-2-yl)-2-phenyl acetamide], the concentration giving a half-maximal response (EC50) was less than 500 nM.

For the molecule `O=C(Cc1ccc(F)cc1)Nc1nc2ccc(C(F)(F)F)cn2c1C1CCCC1` [Compound 50, N-(3-cyclopentyl-6-(trifluoromethyl)imidazo[1,2-a]pyridin-2-yl)-2-(4-fluorophenyl)acetamide], the EC50 was less than 500 nM.

As to `O=C(Nc1nc2ccc(C(F)(F)F)cn2c1CC1CCCCC1)C1CCCC1` [Compound 52, N-(3-(cyclohexylmethyl)-6-(trifluoromethyl)imidazo[1,2-a]pyridin-2-yl)cyclopentanecarboxamide], the EC50 was less than 500 nM.

As to `CC(C)CCc1c(NC(=O)C2CCCC2)nc2ccc(C(F)(F)F)cn12` [Compound 53, N-(3-isopentyl-6-(trifluoromethyl)imidazo[1,2-a]pyridin-2-yl)cyclopentanecarboxamide], the 50% effective concentration (EC50) was less than 500 nM.

`O=C(Nc1nc2ccc(C(F)(F)F)cn2c1C1CCCCC1)C1CCCC1` [Compound 54, N-(3-cyclohexyl-6-(trifluoromethyl)imidazo[1,2-a]pyridin-2-yl)cyclopentanecarboxamide]: the EC50 was less than 500 nM.

Regarding `O=C(Nc1nc2ccc(C(F)(F)F)cn2c1C1CCCC1)C1CCCC1` [Compound 55, N-(3-cyclopentyl-6-(trifluoromethyl)imidazo[1,2-a]pyridin-2-yl)cyclopentanecarboxamide], the EC50 is less than 500 nM.

On to `CC1(CC(=O)Nc2nc3ccc(C(F)(F)F)cn3c2C2CCCC2)CCCC1` [Compound 56, N-(3-cyclopentyl-6-(trifluoromethyl)imidazo[1,2-a]pyridin-2-yl)-2-(1-methylcyclopentyl)acetamide], for which the EC50 was less than 500 nM.

On to `CC(C)(C)Cc1c(NC(=O)CC2CC2)nc2ccc(C(F)(F)F)cn12` [Compound 57, 2-cyclopropyl-N-(3-neopentyl-6-(trifluoromethyl)imidazo[1,2-a]pyridin-2-yl)acetamide], for which the EC50 was less than 500 nM.

`CCC(C)CC(=O)Nc1nc2ccc(C(F)(F)F)cn2c1CC(C)(C)C` (stereo not shown) [Compound 58, 3-methyl-N-(3-neopentyl-6-(trifluoromethyl)imidazo[1,2-a]pyridin-2-yl)pentanamide]: the EC50 was less than 500 nM.

As for `CC(C)(C)Cc1c(NC(=O)C2CCCCC2)nc2ccc(C(F)(F)F)cn12` [Compound 59, N-(3-neopentyl-6-(trifluoromethyl)imidazo[1,2-a]pyridin-2-yl)cyclohexanecarboxamide], the EC50 is less than 500 nM.

On to `CC(C)(C)Cc1c(NC(=O)CC(F)(F)F)nc2ccc(C(F)(F)F)cn12` [Compound 60, 3,3,3-trifluoro-N-(3-neopentyl-6-(trifluoromethyl)imidazo[1,2-a]pyridin-2-yl)propanamide], for which the EC50 was less than 500 nM.

Take `CC(C)(C)Cc1c(NC(=O)Cc2ccc(C(F)(F)F)cc2)nc2ccc(C(F)(F)F)cn12` [Compound 61, N-(3-neopentyl-6-(trifluoromethyl)imidazo[1,2-a]pyridin-2-yl)-2-(4-(trifluoromethyl)phenyl)acetamide]: the EC50 was less than 500 nM.

Take `CC(=O)Nc1nc2ccc(C(F)(F)F)cn2c1CC(C)(C)C` [Compound 62, N-(3-neopentyl-6-(trifluoromethyl)imidazo[1,2-a]pyridin-2-yl)acetamide]: the EC50 fell in the range of 3000 to 10000 nM.

Regarding `CC(C)CC(=O)Nc1nc2ccc(C(F)(F)F)cn2c1CC(C)(C)C` [Compound 63, 3-methyl-N-(3-neopentyl-6-(trifluoromethyl)imidazo[1,2-a]pyridin-2-yl)butanamide], the 50% effective concentration (EC50) lay in the range of 500 to 3000 nM.

`CC(C)(C)Cc1c(NC(=O)C2CC2)nc2ccc(C(F)(F)F)cn12` [Compound 64, N-(3-neopentyl-6-(trifluoromethyl)imidazo[1,2-a]pyridin-2-yl)cyclopropanecarboxamide]: the EC50 fell in the range of 500 to 3000 nM.

For the molecule `CC(C)(C)CC(=O)Nc1nc2ccc(F)cn2c1CC1CCCCC1` [Compound 66, N-(3-(cyclohexylmethyl)-6-fluoroimidazo[1,2-a]pyridin-2-yl)-3,3-dimethylbutanamide], the EC50 was less than 500 nM.

On to `Cc1ccc2nc(NC(=O)CC(C)(C)C)c(CC(C)(C)C)n2n1` [Compound 67, 3,3-dimethyl-N-(6-methyl-3-neopentylimidazo[1,2-b]pyridazin-2-yl)butanamide], for which the EC50 is less than 500 nM.

Turning to `CC(CC(=O)Nc1nc2ccc(C(F)(F)F)cn2c1C1CC1)C(F)(F)F` (stereo not shown) [Compound 69, N-(3-cyclopropyl-6-(trifluoromethyl)imidazo[1,2-a]pyridin-2-yl)-4,4,4-trifluoro-3-methylbutanamide], the EC50 was less than 500 nM.

With `O=C(Cc1ccc(F)cc1)Nc1nc2ccc(C(F)(F)F)cn2c1C1CC1` [Compound 70, N-(3-cyclopropyl-6-(trifluoromethyl)imidazo[1,2-a]pyridin-2-yl)-2-(4-fluorophenyl)acetamide], the EC50 was less than 500 nM.

`CC(C)(C)Cc1c(NC(=O)CC2CCCC2(F)F)nc2ccc(C(F)(F)F)cn12` (stereo not shown) [Compound 71, 2-(2,2-difluorocyclopentyl)-N-(3-neopentyl-6-(trifluoromethyl)imidazo[1,2-a]pyridin-2-yl)acetamide]: the concentration giving a half-maximal response (EC50) is less than 500 nM.

Turning to `CC(C)(C)Cc1c(NC(=O)CC2CCCC2)nc2ccc(C(F)(F)F)cn12` [Compound 72, 2-cyclopentyl-N-(3-neopentyl-6-(trifluoromethyl)imidazo[1,2-a]pyridin-2-yl)acetamide], the EC50 is less than 500 nM.

Turning to `CC(C)(C)Cc1c(NC(=O)C2CCC(F)(F)CC2)nc2ccc(C(F)(F)F)cn12` [Compound 73, 4,4-difluoro-N-(3-neopentyl-6-(trifluoromethyl)imidazo[1,2-a]pyridin-2-yl)cyclohexanecarboxamide], the EC50 is less than 500 nM.

Regarding `Cc1ccc2nc(NC(=O)CC(C)(C)C)c(C3CC3)n2n1` [Compound 74, N-(3-cyclopropyl-6-methylimidazo[1,2-b]pyridazin-2-yl)-3,3-dimethylbutanamide], the concentration giving a half-maximal response (EC50) lay in the range of 500 to 3000 nM.

As for `O=C(Nc1nc2ccc(C(F)(F)F)cn2c1C1CC1)C1CCC(F)(F)CC1` [Compound 75, N-(3-cyclopropyl-6-(trifluoromethyl)imidazo[1,2-a]pyridin-2-yl)-4,4-difluorocyclohexanecarboxamide], the EC50 is less than 500 nM.

As to `Cc1ccc2nc(NC(=O)CC(C)C(F)(F)F)c(C3CC3)n2n1` (stereo not shown) [Compound 76, N-(3-cyclopropyl-6-methylimidazo[1,2-b]pyridazin-2-yl)-4,4,4-trifluoro-3-methylbutanamide], the EC50 is 3000 to 10000 nM.

For the molecule `O=C(Cc1ccc(F)c(F)c1)Nc1nc2ccc(C(F)(F)F)cn2c1C1CC1` [Compound 77, N-(3-cyclopropyl-6-(trifluoromethyl)imidazo[1,2-a]pyridin-2-yl)-2-(3,4-difluorophenyl)acetamide], the EC50 is less than 500 nM.

Regarding `Cc1ccc2nc(NC(=O)C3CCC(F)(F)CC3)c(C3CC3)n2n1` [Compound 78, N-(3-cyclopropyl-6-methylimidazo[1,2-b]pyridazin-2-yl)-4,4-difluorocyclohexanecarboxamide], the EC50 is 500 to 3000 nM.

`O=C(Cc1ccc(F)cc1F)Nc1nc2ccc(C(F)(F)F)cn2c1C1CC1` [Compound 79, N-(3-cyclopropyl-6-(trifluoromethyl)imidazo[1,2-a]pyridin-2-yl)-2-(2,4-difluorophenyl)acetamide]: the EC50 was 500 to 3000 nM.

`O=C(Cc1cc(F)cc(F)c1)Nc1nc2ccc(C(F)(F)F)cn2c1C1CC1` [Compound 80, N-(3-cyclopropyl-6-(trifluoromethyl)imidazo[1,2-a]pyridin-2-yl)-2-(3,5-difluorophenyl)acetamide]: the EC50 is less than 500 nM.

Consider `Cc1cccc2nc(NC(=O)CC(C)(C)C)c(C3CC3)n12` [Compound 81, N-(3-cyclopropyl-5-methylimidazo[1,2-a]pyridin-2-yl)-3,3-dimethylbutanamide], for which the EC50 lay in the range of 3000 to 10000 nM.

With `CC(C)(C)CC(=O)Nc1nc2ccc(C(F)(F)F)cn2c1-c1nccs1` [Compound 82, 3,3-dimethyl-N-(3-(thiazol-2-yl)-6-(trifluoromethyl)imidazo[1,2-a]pyridin-2-yl)butanamide], the half-maximal effective concentration (EC50) lay within 3000 to 10000 nM.
